# Results: ChEMBL document CHEMBL3421614, “Identification of novel aldose reductase inhibitors based on carboxymethylated mercaptotriazinoindole scaffold” (J Med Chem, 2015)
# Assays:
# [1] = molecular target: Aldo-keto reductase family 1 member B1 (Rattus norvegicus, UniProt P07943); test: Inhibition of Wistar rat lens aldose reductase using D,L-glyceraldehyde as substrate incubated for 1 min measured for 4 mins by spectrophotometry
# [2] = molecular target: Aldo-keto reductase family 1 member B10 (Homo sapiens, UniProt O60218); test: Inhibition of human AKR1B10 using D-glucuronate as substrate by spectrophotometry
# Sequence of Aldo-keto reductase family 1 member B10 (O60218 whole entry): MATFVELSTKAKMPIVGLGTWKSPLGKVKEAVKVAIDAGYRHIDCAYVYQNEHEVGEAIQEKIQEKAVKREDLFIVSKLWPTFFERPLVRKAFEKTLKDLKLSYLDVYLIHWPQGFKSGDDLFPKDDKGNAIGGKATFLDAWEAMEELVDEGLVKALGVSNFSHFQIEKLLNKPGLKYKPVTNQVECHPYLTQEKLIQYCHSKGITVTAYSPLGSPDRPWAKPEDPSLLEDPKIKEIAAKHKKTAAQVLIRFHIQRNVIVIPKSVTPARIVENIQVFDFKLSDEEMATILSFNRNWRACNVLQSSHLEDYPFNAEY
# [3] = Octanol-phosphate buffer partition coefficient, log D of the compound at 100 uM at pH 7.4 at RT after 1 hr by shake flask method; format: physicochemical
# [4] = Inhibition of Wistar rat kidney aldehyde reductase using D-glucuronate as substrate at 10 uM by spectrophotometry
# [5] = Inhibition of Wistar rat kidney aldehyde reductase using D-glucuronate as substrate at 100 uM by spectrophotometry
# [6] = molecular target: Aldo-keto reductase family 1 member B1 (Rattus norvegicus) (UniProt P07943); test: Inhibition of Wistar rat lens aldose reductase using D,L-glyceraldehyde as substrate at 100 uM incubated for 1 min measured for 4 mins by spectrophotometry
# [7] = molecular target: Aldo-keto reductase family 1 member B1 (Rattus norvegicus) (UniProt P07943); test: Inhibition of Wistar rat lens aldose reductase using D,L-glyceraldehyde as substrate at 10 uM incubated for 1 min measured for 4 mins by spectrophotometry
IC50 ([1]; read-out: IC50),inhibition [5],Structure (SMILES),also measured
2.05 µM,–,CC(C)Sc1nnc2c3ccccc3n(CC(=O)O)c2n1,–
2.24 µM,–,O=C(O)Cn1c2ccccc2c2nnc(Sc3ccccc3F)nc21,inhibition [4]: 1.18%; IC50 ([1]; read-out: pIC50 (converted)): 2.19 µM
4.06 µM,–,Cc1cc(C)c(NC(=O)CSc2nnc3c4ccccc4n(CC(=O)O)c3n2)c(C)c1,inhibition [4]: 23.5%
9.95 µM,–,O=C(O)Cn1c2ccccc2c2nn3c(nc4ccccc43)nc21,inhibition [4]: 15.1%
0.33 µM,–,CCCNC(=O)CSc1nnc2c3cc(C)ccc3n(CC(=O)O)c2n1,–

# More lines, now with the values behind:
Structure (SMILES),IC50 ([1]; read-out: IC50),inhibition [5],also measured
CC(C)(C)C(=O)c1cn(CC(=O)O)c2ccccc12,13.8 µM,–,–
O=C(O)Cn1c2c(c3ccccc31)CCC2,2.87 µM,–,–
O=C(O)Cn1c2ccccc2c2nnc(S)nc21,–,–,"IC50 [2]: 21.4 µM; logD at 1 h, 100 µM [3]: -1.9"
O=C(O)Cn1cc(Cc2nc3c(F)c(F)cc(F)c3s2)c2ccccc21 [LIDORESTAT],0.005 µM,–,–
O=C(O)Cn1c2ccccc2c2nc3ccccc3nc21,2.75 µM,–,–
O=C(O)Cn1cc(N2CCOCC2)c2ccccc21,34.5 µM,32.5%,–
O=C(O)Cn1cc(N2CCCC2)c2ccccc21,46.5 µM,19.2%,–
Cc1c(CN(C)C)c2ccccc2n1CC(=O)O,42.2 µM,22.3%,–
CCN(CC)Cc1cn(CCC(=O)O)c2ccccc12,–,6.65%,inhibition [6]: 19.9%
O=C(O)Cn1c2ccccc2c2cn[nH]c(=O)c21,11.5 µM,49%,–
O=C(O)Cn1ccc2ccccc21,7.3 µM,–,–
O=C(O)CCn1ccc2ccccc21,–,11.8%,inhibition [6]: 53.5%
Sc1nnc2c(n1)[nH]c1ccccc12,–,–,inhibition [6]: 4.41%
O=C(O)CSc1nnc2c(n1)[nH]c1ccccc12,–,–,inhibition [7]: 3.46%
CCN(CC)Cc1cn(CC(=O)O)c2ccccc12,30.1 µM,38%,–
